{
  "source": "patent US20190209581A1",
  "about": "“DOSAGE REGIMEN FOR TREATMENT OF SOLID TUMORS” (Eli Lilly and Company, priority 2016, published 2019)",
  "key": {"N1ICD (cleaved Notch1)": {"system": "N1ICD (cleaved Notch1)", "experiment": "N1ICD analysis (ELISA) in xenograft tumors", "format": "in vivo, human", "details": "for % N1ICD Inhibition: 10 mg/kg (Q2Dx7), 11-days OFF", "procedure": "To evaluate in vivo efficacy and effect of 4,4,4-Trifluoro-N-[(1S)-2-[[(7S)-5-(2-hydroxyethyl)-6-oxo-7H-pyrido[2,3-d][3]benzazepin-7-yl]amino]-1-methyl-2-oxo-ethyl]butanamide on inhibition of Notch processing pharmacodynamics (PD), several cell lines- and patient-derived xenograft models are used. A2780 is a human ovarian cell line (Sigma-Aldrich, No. 93112519); SW480 is a human colorectal cell line (ATCC No. CCL-228); HCT 116 is a human colorectal cell line (ATCC No. CCL-247); U-87 MG is a human glioblastoma cell line (ATCC No. HTB-14); A375 is a human malignant melanoma cell line (ATCC No. CRL-1619); K-562 is a human chronic myelogenous leukemia (CML) cell line characterized by the presence of a fusion transcript comprised of the Bcr and Abl1 genes (ATCC No. CCL-243); Jurkat; HEL 92.1.7 is a human erythroleukemia cell line (ATCC No. TIB-180). Each of the cell lines are obtained from the American Type Culture Collection (ATCC) at the ATCC number stated, except the A2780 cell line which is obtained from Sigma-Aldrich at the stated catalog number. The cells are grown in their respective, recommended culture media at 37° C. in 5% CO2 with humidity in the atmosphere. A2780 (2×10^6), SW480 (6×10^6), HCT 116 (6×10^6), U-87 MG (6×10^6), and A-375 (10×10^6) cells in a 1:1 matrigel mix (0.2 mL volume) are implanted by subcutaneous injection in the hind leg of 6-8 weeks of age athymic nude female mice (Harlan Laboratories). K-562 (6×10^6) cells in a 1:1 matrigel mix (0.2 mL volume) are implanted by subcutaneous injection in the hind leg of 6-8 weeks of age CD1 nμ/nμ female mice (Charles River Laboratories). HEL 92.1.7 (7×10^6) in a 1:1 matrigel mix (0.2 mL volume) are implanted by subcutaneous injection in the hind leg of 6-8 weeks of age CB17 severely combined immune deficient female mice (Taconic Farms). Patient-derived tumors are minced into 1-2 mm pieces and mixed with matrigel (1:1) in 0.2 ml volume and implanted by subcutaneous injection in the hind leg of 6-8 weeks of age athymic nude female mice (Harlan Laboratories). Patients-derived tumor models include: human colon carcinoma (EL2144), human triple negative invasive ductal breast carcinoma (EL1997), human colon carcinoma (EL1989, EL 1986), and human glioblastoma (EL 2056) with samples obtained after patient consent and hospital approval from IU Health, Methodist Hospital, Indianapolis, Ind., USA 46206. A total of 7 to 10 mice are used for each group. Just before implantation for A2780, SW480, HEL 92.1.7, A-375, K-562, and patient-derived tumor models, animals are irradiated (450 Total Body Irradiation). Mice are fed ad libitum on normal chow. Treatment is initiated with oral administration (gavage) of compound or vehicle (1% Na-CMC in 0.25% Tween®-80) in 0.2 mL volume when tumor size reached to 150±50 mm^3. At designated time points following treatment, animals are sacrificed by CO2 asphyxiation and cervical dislocation. Tumors are removed and used for PD response analysis. Tumor growth and body weight are monitored over time to evaluate efficacy and signs of toxicity. Bidimensional measurements of tumors are performed twice a week and tumor volumes are calculated based on the following formula: (Tumor Volume)=[(L)×(W2)×(Π/6)] where L is mid-axis length and W is mid-axis width. Tumor volume data are transformed to a log scale to equalize variance across time and treatment groups. The log volume data are analyzed with a two-way repeated measures analysis of variance by time and treatment using the MIXED™ procedures in SAS™ software (version 8.2). The correlation model for the repeated measures is spatial power. Treated groups are compared to the control group at each time point. The MIXED™ procedure is also used separately for each treatment group to calculate adjusted means and standard errors at each time point. Both analyses account for the autocorrelation within each animal and the loss of data that occurs when animals with large tumors are removed from the study early. […]"}, "[1]": {"system": "SW480 human colorectal cell line", "experiment": "Tumor growth inhibition, SW480 xenograft", "format": "in vivo", "details": "SW480 in mice, oral 8 mg/kg, (Mon, Wed, Fri)x5; p <0.0001", "procedure": "To evaluate in vivo efficacy and effect of 4,4,4-Trifluoro-N-[(1S)-2-[[(7S)-5-(2-hydroxyethyl)-6-oxo-7H-pyrido[2,3-d][3]benzazepin-7-yl]amino]-1-methyl-2-oxo-ethyl]butanamide on inhibition of Notch processing pharmacodynamics (PD), several cell lines- and patient-derived xenograft models are used. A2780 is a human ovarian cell line (Sigma-Aldrich, No. 93112519); SW480 is a human colorectal cell line (ATCC No. CCL-228); HCT 116 is a human colorectal cell line (ATCC No. CCL-247); U-87 MG is a human glioblastoma cell line (ATCC No. HTB-14); A375 is a human malignant melanoma cell line (ATCC No. CRL-1619); K-562 is a human chronic myelogenous leukemia (CML) cell line characterized by the presence of a fusion transcript comprised of the Bcr and Abl1 genes (ATCC No. CCL-243); Jurkat; HEL 92.1.7 is a human erythroleukemia cell line (ATCC No. TIB-180). […] Tumor growth and body weight are monitored over time to evaluate efficacy and signs of toxicity. Bidimensional measurements of tumors are performed twice a week and tumor volumes are calculated based on the following formula: (Tumor Volume)=[(L)×(W2)×(Π/6)] where L is mid-axis length and W is mid-axis width. […] The log volume data are analyzed with a two-way repeated measures analysis of variance by time and treatment using the MIXED™ procedures in SAS™ software (version 8.2). […]"}, "[2]": {"details": "Homo sapiens, A2780, 4 h, A2780 tumors 4 hours after last dose, Q2Dx13, p <0.0001"}},
  "data": [
    {"smiles": "C[C@H](NC(=O)CCC(F)(F)F)C(=O)N[C@@H]1C(=O)N(CCO)c2ncccc2-c2ccccc21", "note": "[Compound 1, 4,4,4-trifluoro-N-[(1S)-2-[[(7S)-5-(2-hydroxyethyl)-6-oxo-7H-pyrido[2,3-d][3]benzazepin-7-yl]amino]-1-methyl-2-oxo-ethyl]butanamide]", "values": [
      {"measurement": "% N1ICD Inhibition", "setting": "N1ICD (cleaved Notch1); EL1989 tumors 4 hours after last dose, 8 mg/kg (Mon, Wed, Fri)x3, p <0.0001", "result": "79.2 (<0.0001) %"},
      {"measurement": "% N1ICD Inhibition", "setting": "N1ICD (cleaved Notch1); EL1997 tumors 4 hours after last dose, 8 mg/kg (Mon, Wed, Fri)x4, p <0.0001", "result": "67.9 (<0.0001) %"},
      {"measurement": "inhibition at 8 mg/kg", "setting": "N1ICD (cleaved Notch1); Homo sapiens, 4 h, EL1986 tumors 4 hours after last dose, (Mon, Wed, Fri)x5, p <0.0001", "result": 84.9, "unit": "%"},
      {"measurement": "inhibition at 8 mg/kg", "setting": "N1ICD (cleaved Notch1); Homo sapiens, 4 h, EL2056 tumors 4 hours after last dose, (Mon, Wed, Fri)x5, p <0.0001", "result": 83.5, "unit": "%"},
      {"measurement": "inhibition at 1.5 mg/kg", "setting": "N1ICD (cleaved Notch1); Homo sapiens, A2780, 4 h, A2780 tumors 4 hours after last dose, 1.5 mg/kg, QDx26, p <0.0001", "result": 59, "unit": "%"},
      {"measurement": "inhibition at 3 mg/kg", "setting": "N1ICD (cleaved Notch1); Homo sapiens, A2780, 4 h, A2780 tumors 4 hours after last dose, (BID)QDx7 + (BID)Q2Dx7, p 0.0004", "result": 50.7, "unit": "%"},
      {"measurement": "inhibition at 3 mg/kg", "setting": "N1ICD (cleaved Notch1); [2]", "result": 58.6, "unit": "%"},
      {"measurement": "inhibition at 3 mg/kg", "setting": "N1ICD (cleaved Notch1); Homo sapiens, A2780, 4 h, A2780 tumors 4 hours after last dose, QDx21, p <0.0001", "result": 62.8, "unit": "%"},
      {"measurement": "inhibition at 6 mg/kg", "setting": "N1ICD (cleaved Notch1); Homo sapiens, A2780, 4 h, A2780 tumors 4 hours after last dose, 6 mg/kg, Q2Dx13, p <0.0001", "result": 60.7, "unit": "%"},
      {"measurement": "inhibition at 7 mg/kg", "setting": "N1ICD (cleaved Notch1); Homo sapiens, A2780, 4 h, A2780 tumors 4 hours after last dose, 7 mg/kg, Q2Dx13, p <0.0001", "result": 65.9, "unit": "%"},
      {"measurement": "inhibition at 8 mg/kg", "setting": "N1ICD (cleaved Notch1); [2]", "result": 71.7, "unit": "%"},
      {"measurement": "inhibition at 10 mg/kg", "setting": "N1ICD (cleaved Notch1); Homo sapiens, A2780, 4 h, A2780 tumors 4 hours after last dose, Q2Dx11, p <0.0001", "result": 68.5, "unit": "%"},
      {"measurement": "inhibition at 10 mg/kg", "setting": "N1ICD (cleaved Notch1); [2]", "result": 74.8, "unit": "%"},
      {"measurement": "inhibition at 10 mg/kg", "setting": "N1ICD (cleaved Notch1); Homo sapiens, A2780, 4 h, A2780 tumors 4 hours after last dose, Q3Dx8, p <0.0001", "result": 55.3, "unit": "%"},
      {"measurement": "inhibition at 8 mg/kg", "setting": "N1ICD (cleaved Notch1); Homo sapiens, A-375, 4 h, A-375 tumors 4 hours after last dose, (Mon, Wed, Fri)x4, p <0.0001", "result": 77.5, "unit": "%"},
      {"measurement": "inhibition at 8 mg/kg", "setting": "N1ICD (cleaved Notch1); Homo sapiens, HCT-116, 4 h, HCT 116 tumors 4 hours after last dose, (Mon, Wed, Fri)x4, p =0.0005", "result": 73, "unit": "%"},
      {"measurement": "inhibition at 8 mg/kg", "setting": "N1ICD (cleaved Notch1); Homo sapiens, HEL 92.1.7, 4 h, HEL 92.1.7 tumors 4 hours after last dose, Q2dx14, p <0.0001", "result": 56.7, "unit": "%"},
      {"measurement": "inhibition at 8 mg/kg", "setting": "N1ICD (cleaved Notch1); Homo sapiens, K562, 4 h, K-562 tumors 4 hours after last dose, (Mon, Wed, Fri)x4, p <0.0001", "result": 47.6, "unit": "%"},
      {"measurement": "inhibition at 8 mg/kg", "setting": "N1ICD (cleaved Notch1); Homo sapiens, SW480, 4 h, SW480 tumors 4 hours after last dose, (Mon, Wed, Fri)x5, p =0.0002", "result": 72.5, "unit": "%"},
      {"measurement": "inhibition at 8 mg/kg", "setting": "N1ICD (cleaved Notch1); Homo sapiens, U-87 MG, 4 h, U-87 MG tumors 4 hours after last dose, (Mon, Wed, Fri)x4, p <0.0001", "result": 87.8, "unit": "%"},
      {"measurement": "% TGI", "setting": "[1]", "result": "61.00 (<0.0001) %"}
    ]}
  ]
}
